Test results from publication PMC9681820, “A PDE10A inhibitor CPL500036 is a novel agent modulating striatal function devoid of most neuroleptic side-effects” (Frontiers in Pharmacology, 2022).
Read-outs that look alike come from different tables or passages of the source.

Columns and labels:
PDE10A = PDE10A (Homo sapiens, UniProt Q9Y233); test: LabChip microfluidic mobility-shift assay, IC50 against PDE10A; format: biochemical; conditions: eight concentrations 0.1 nM to 300 nM, duplicate
Description: IC50 determination was assessed using LabChip® microfluid technology (PerkinElmer, Hopkinton, MA, United States) in line with the service-provider’s protocol. CPL500036 was tested at eight concentrations ranging from 0.1 nM to 300 nM. The assay was run on the EZ Reader™ II platform (Caliper Life Sciences, Hopkinton, MA, United States). After the incubation period, levels of the reaction products and remaining substrate were measured. Analyzed data were from duplicate measurement, and IC50 was determined using a variable slope with Prism 5 (GraphPad, San Diego, CA, United States).

[1] = target: T1, beta-1 adrenergic receptor (Homo sapiens, UniProt P08588); test: SafetyScreen44 radioligand binding; conditions: agonist radioligand, read-out: % Inh (% inhibition of control specific binding)
T1 construct: purchased Eurofins Cerep (SafetyScreen44)
T1 sequence (P08588 whole entry): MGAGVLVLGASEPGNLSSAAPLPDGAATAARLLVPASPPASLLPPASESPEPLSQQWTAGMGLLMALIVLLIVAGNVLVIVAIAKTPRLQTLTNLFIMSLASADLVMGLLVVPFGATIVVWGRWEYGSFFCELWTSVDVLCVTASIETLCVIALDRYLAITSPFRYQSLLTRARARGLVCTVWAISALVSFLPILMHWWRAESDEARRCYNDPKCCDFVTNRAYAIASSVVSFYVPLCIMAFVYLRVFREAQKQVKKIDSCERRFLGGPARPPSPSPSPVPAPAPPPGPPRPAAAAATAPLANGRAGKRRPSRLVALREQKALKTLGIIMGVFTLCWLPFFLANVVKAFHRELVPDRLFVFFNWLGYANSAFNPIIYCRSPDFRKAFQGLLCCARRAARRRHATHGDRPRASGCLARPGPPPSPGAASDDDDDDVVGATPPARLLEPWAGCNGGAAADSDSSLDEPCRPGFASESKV
Description: (§1) The SafetyScreen44® assay was carried out by Eurofins (Poitiers, France) according to the service-provider’s protocol. CPL500036 (1 µM) was tested against a panel of […] potential off-targets proteins, including G protein-coupled receptors (GPCRs), transporters, ion channels, nuclear receptors kinases and other non-kinase enzymes, by use of a set of the binding assays.
(§2) Binding of CPL500036 was calculated as the percent binding inhibition of a radioactively labeled ligand specific for each target. Enzyme inhibition of CPL500036 was calculated as the percent inhibition of the activity of the control enzyme. “No interaction” was denoted if inhibition ≤ 25% of specific binding of the control. Determination of muscarinic acetylcholine receptor (M2) activity induced by CPL500036 (antagonism and agonism) was undertaken in human recombinant CHO cells by measurement of the intracellular cAMP level according to the service-provider’s protocol. IC50 (concentration causing a half-maximal inhibition of specific binding of the control) or EC50 (concentration causing a half-maximal response of specific binding of the control) and the Hill coefficient were determined by non-linear regression analysis of the competition curves generated with mean replicate values using Hill-equation curve fitting with software developed at Cerep (Celle-Lévescault, France).

[2] = target: T2, beta-2 adrenergic receptor (Homo sapiens, UniProt P07550); test: SafetyScreen44 radioligand binding; conditions: agonist radioligand, read-out: % Inh (% inhibition of control specific binding)
T2 construct: purchased Eurofins Cerep (SafetyScreen44)
T2 sequence (P07550 whole entry): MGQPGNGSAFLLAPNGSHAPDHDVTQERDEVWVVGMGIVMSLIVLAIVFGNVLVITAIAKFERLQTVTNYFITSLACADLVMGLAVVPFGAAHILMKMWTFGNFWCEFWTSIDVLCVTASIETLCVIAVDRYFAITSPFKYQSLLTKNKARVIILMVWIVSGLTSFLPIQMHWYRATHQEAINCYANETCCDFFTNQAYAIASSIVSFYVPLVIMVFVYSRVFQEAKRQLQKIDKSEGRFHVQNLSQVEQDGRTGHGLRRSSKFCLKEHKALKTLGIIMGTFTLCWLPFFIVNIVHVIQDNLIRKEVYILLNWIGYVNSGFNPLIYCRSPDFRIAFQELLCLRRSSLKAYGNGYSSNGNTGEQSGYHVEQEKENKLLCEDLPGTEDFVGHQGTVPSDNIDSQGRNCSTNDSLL
Description: as §1, §2

[3] = target: T3, histamine receptor type 1 (Homo sapiens, UniProt P35367); test: SafetyScreen44 radioligand binding; conditions: read-out: % Inh (% inhibition of control specific binding)
T3 construct: purchased Eurofins Cerep (SafetyScreen44)
T3 sequence (P35367 whole entry): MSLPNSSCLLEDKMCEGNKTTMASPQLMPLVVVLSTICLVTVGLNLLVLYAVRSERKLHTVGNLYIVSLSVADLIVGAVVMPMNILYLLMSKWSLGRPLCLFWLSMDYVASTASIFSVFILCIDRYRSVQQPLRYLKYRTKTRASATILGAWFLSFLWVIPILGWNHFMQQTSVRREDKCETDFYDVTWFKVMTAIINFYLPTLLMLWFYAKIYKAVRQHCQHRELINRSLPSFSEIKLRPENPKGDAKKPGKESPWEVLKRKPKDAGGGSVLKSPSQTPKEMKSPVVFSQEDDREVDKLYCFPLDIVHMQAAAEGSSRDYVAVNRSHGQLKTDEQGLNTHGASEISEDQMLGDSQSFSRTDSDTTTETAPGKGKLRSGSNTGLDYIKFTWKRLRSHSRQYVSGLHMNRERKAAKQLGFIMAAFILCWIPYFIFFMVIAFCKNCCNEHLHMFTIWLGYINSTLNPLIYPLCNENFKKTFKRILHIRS
Description: as §1, §2

serotonin receptor 3 = target: T4, serotonin receptor 3 (Homo sapiens, UniProt P46098); test: SafetyScreen44 radioligand binding; conditions: read-out: % Inh (% inhibition of control specific binding)
T4 construct: purchased Eurofins Cerep (SafetyScreen44)
T4 sequence (P46098 24-478): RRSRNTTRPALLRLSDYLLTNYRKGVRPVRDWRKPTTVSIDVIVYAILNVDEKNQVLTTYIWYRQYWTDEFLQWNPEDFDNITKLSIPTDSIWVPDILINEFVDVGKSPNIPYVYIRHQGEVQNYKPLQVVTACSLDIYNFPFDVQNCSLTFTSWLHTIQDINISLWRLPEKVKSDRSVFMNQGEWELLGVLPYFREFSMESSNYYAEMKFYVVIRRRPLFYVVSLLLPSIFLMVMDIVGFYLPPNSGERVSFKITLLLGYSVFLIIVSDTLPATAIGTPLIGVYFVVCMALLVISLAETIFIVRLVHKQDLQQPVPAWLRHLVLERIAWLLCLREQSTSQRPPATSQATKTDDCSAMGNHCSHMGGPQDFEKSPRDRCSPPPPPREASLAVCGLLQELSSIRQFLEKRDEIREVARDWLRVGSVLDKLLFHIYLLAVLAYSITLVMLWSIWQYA
Description: as §1, §2

[4] = tested on: Salmonella typhimurium TA100; conditions: CPL500036 5000µg/plate, n=3
Beagle dogs = test: In vivo cardiovascular safety, telemetry; conditions: 1.5 mg/kg, 10 mg/kg or 30 mg/kg, p.o., n = 4, free-base form
Source text: Four male Beagle dogs who had been implanted previously with telemetry transmitter devices (Data Sciences, Saint Paul, MN, United States) were used. The number of animals corresponds to the standard approach used for such studies ([Smith et al., 2002]; [Authier et al., 2020]) and includes the accepted study sensitivity and ethics for use of nonrodent species ([ICH S7A Safety Pharmacology Studies for Human Pharmaceuticals, 2001]; [Smith et al., 2002]; [Authier et al., 2020]). The study consisted of four acquisition sessions using a crossover design with dosing intervals of ≥ 48 h. In each experimental session, each dog received (via oral gavage) a different treatment: either vehicle or CPL500036 (1.5 mg/kg, 10 mg/kg or 30 mg/kg). Cardiovascular safety was assessed on arterial blood pressure (systolic, diastolic and mean), heart rate (HR) and electrocardiography (RR interval, PR interval, QRS duration, uncorrected QT and corrected QT (QTc) for heart rate using van de Water correction) acquired continuously for ≥ 2 h before dosing, and for ≥ 24 h post-dose. All parameters were evaluated before and at 13-time points after treatment (15 min, 30 min as well as 1 h, 2 h, 3 h, 4 h, 5 h, 6 h, 8 h,12 h, 16 h, 20 h, and 24 h after dosing).

other PDE family members = tested on: other PDE family members; set-up: method as in Moszczyński-Pętkowski et al., 2018; conditions: at a concentration of 100x IC50; ref Moszczyński-Pętkowski et al., 2018; cited from earlier work
human = conditions: ref Janowska et al., 2019, manuscript in preparation; cited from earlier work
[5] = With metabolic activation (+S9 mix), 2AA 2µg/plate
[6] = Without metabolic activation (-S9 mix), SAZ 2µg/plate

Chain of PDE10A (Q9Y233 whole entry, species assumed): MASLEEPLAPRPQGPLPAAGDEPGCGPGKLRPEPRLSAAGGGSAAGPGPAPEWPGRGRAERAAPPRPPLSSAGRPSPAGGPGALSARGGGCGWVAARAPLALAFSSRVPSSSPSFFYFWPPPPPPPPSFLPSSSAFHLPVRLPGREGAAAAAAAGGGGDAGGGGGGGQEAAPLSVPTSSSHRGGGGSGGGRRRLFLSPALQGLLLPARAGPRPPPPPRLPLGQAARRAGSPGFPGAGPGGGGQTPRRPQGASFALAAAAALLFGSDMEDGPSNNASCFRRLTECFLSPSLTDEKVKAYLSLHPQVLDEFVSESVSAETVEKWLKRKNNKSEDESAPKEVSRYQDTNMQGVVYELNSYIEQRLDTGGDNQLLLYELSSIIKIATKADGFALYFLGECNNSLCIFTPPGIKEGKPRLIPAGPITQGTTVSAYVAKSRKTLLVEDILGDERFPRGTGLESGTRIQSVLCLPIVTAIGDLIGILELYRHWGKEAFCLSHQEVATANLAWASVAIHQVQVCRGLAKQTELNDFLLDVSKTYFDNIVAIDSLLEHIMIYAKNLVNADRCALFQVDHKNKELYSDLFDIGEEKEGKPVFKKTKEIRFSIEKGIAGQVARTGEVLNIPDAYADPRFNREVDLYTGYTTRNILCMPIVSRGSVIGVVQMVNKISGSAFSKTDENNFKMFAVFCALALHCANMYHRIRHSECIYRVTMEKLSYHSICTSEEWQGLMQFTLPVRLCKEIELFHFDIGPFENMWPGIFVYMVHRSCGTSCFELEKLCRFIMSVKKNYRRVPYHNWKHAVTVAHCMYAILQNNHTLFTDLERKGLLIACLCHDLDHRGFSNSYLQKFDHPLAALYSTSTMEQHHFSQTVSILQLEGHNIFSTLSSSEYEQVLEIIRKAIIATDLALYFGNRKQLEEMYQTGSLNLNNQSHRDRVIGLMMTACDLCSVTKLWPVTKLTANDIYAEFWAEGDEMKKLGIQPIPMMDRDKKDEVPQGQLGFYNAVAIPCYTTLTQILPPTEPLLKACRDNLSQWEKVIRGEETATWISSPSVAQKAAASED

Cc1ncc(C)n2nc(-c3ccn4cc(-c5ccccc5)nc4n3)nc12 [CPL500036, 7-[5,8-Dimethyl-(1,2,4)triazolo (1,5-a)pyrazin-2-yl]-2-phenylimidazo (1,2-a) pyrimidine]
IC50 (PDE10A): 1 nM
inhibition at 1 µM [1]: 1.1%
inhibition at 1 µM [2]: 8.2%
inhibition at 1 µM [3]: -14.6%
inhibition at 1 µM (serotonin receptor 3): -5.7%
Mutation rate [4, 5]: 0.82
Revertants Mean±SD [4, 5]: 62.3±9.02
Mutation rate [4, 6]: 1.02
Revertants Mean±SD [4, 6]: 66.3±1.08
electrocardiography parameters (particularly QTcv and QRS duration) (Beagle dogs): Noticeable alterations in any of the electrocardiography parameters analyzed (particularly QTcv and QRS duration) were not observed
heart rate (Beagle dogs): significant differences were not seen compared with the vehicle control group
systolic, diastolic and mean blood pressures (Beagle dogs): Remarkable variations in systolic, diastolic and mean blood pressures were not recorded
inhibition of other PDE family members (other PDE family members): didn’t inhibit other PDE family members
bioavailability in human (human): bioavailable in human
safety and tolerability in human (human): generally safe and well tolerated with no serious adverse effects
